Assay results published in patent US7375098B2, “8β-vinyl-11β-(ω-substituted)alkyl-estra-1,3,5(10)-trienes” (Schering A.G., priority 2003, dated 2008).
Where two headings read alike, the source gives them in different places.

Assays:
[1] = Solubility Sw (turbidimetry); conditions: pH 7.4 at 25° C.
[2] = target: T1, ERα (Homo sapiens, UniProt P03372); experiment: Transactivation test for estrogenic agonists and antagonists, ERα, U-20S cells, luciferase reporter; assay type: cell-based; conditions: for Efficacy[%] ERα: luciferase activity
T1 construct: pSG5-ERα/β FL (Heg0/ERβ0); expressed in transfected cells; host or cells: U-20S (U-2 OS) cells, transient transfection with FuGENE 6
T1 sequence (P03372 1-595): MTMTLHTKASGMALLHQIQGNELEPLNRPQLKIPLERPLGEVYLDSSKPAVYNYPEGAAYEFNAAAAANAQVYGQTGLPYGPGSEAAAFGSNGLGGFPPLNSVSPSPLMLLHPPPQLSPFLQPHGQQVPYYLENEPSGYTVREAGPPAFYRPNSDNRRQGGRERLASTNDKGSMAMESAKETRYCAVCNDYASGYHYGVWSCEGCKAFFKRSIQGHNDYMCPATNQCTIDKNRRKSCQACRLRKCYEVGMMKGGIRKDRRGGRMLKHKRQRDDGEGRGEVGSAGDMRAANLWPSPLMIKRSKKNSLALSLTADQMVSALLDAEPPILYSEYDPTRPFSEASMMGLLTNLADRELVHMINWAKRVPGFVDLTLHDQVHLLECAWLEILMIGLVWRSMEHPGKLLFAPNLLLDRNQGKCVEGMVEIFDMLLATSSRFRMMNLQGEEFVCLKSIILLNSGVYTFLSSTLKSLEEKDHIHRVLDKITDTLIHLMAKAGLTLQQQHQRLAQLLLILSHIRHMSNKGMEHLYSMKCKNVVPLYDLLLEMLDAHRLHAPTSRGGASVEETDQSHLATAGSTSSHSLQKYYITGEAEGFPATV
Method: (§1) Transactivation Test for Estrogenic Agonists and Antagonists Cultivation of Cells:
(§2) The resuspension of the cells is carried out in 10 ml of D-MEM+5% CCS+PSG.
(§3) Dissemination of 100 μl of cell suspension (1×10^4 cells) per well. 6 hours after the dissemination, the transfection takes place.
(§4) The ERβα-expression plasmid (HEGO) that was used was amplified in E. coli DH5α (Invitrogen Company). The ERβ-expression plasmid (ERβ0) that was used was produced in-house and amplified in E. coli DH5α. As in the case of the ERα, the expression plasmid pSG5 was used. As a reporter plasmid, the vector pBL-LUC^+ was provided with two Tandem-EREs (estrogen-responsive elements of the vitellogenin promoter) and amplified in E. coli (XL1-Blue; Stratagene Company).
(§5) The latter are first diluted separately in a suitable volume of DMEM and incubated, before the solutions are combined and again incubated.
(§6) Incubation of solutions A and B for 5 minutes at room temperature (RT). Then solution B to be added drop by drop to solution A and mixed. Incubation of solution AB for 15 minutes at room temperature.
(§7) Dilution of the transfection mixture AB for 4 plates with 22.5 ml of D-MEM+5% CCS+PSG. […] Only 60 wells are transfixed per plate; the outside wells receive only medium.
(§8) The 10^−3M DMSO solutions are stored at −20° C. and must be readily dissolved before the removal (15 minutes, 37° C.).
(§9) The dilution stages are selected such that the final concentrations on the test plate for agonism lie in the range of 10^−7-10^−12M (for E2: 10^−8-10^−13M).
(§10) All dilution stages thus contain 1% DMSO.
(§11) After the transfection, the transfection medium is replaced by 180 μl of D-MEM+5% CCS+PSG per well.
(§12) To test for antagonism, the cells are treated in addition with estradiol. Then, 20 μl of the substance dilutions is pipetted through. The negative controls receive 20 μl of DMEM+1% DMSO per well. The final test substance concentrations are 3×10^−11 M for ERα or 3×10^−10 M for ERβ.
(§13) After the medium is suctioned off, in each case 30 μl of lysis 1× reagent (Promega; #E1531) is added to the cells and incubated for ½ hour-1 hour at room temperature while being shaken vigorously (IKA-VIBRAX-VXR, 600 rpm).
(§14) The evaluation of the measurement data is carried out by means of software assigned by the equipment manufacturer (BioLinx). […] A calculation of EC50, the efficacy and the EMR value for the agonism or the IC50 and the efficacy for the antagonism is possible by means of “MTS” software (Table 2).

[3] = target: T2, ERβ (Homo sapiens, UniProt Q92731); experiment: Transactivation test for estrogenic agonists and antagonists, ERβ, U-20S cells, luciferase reporter; assay type: cell-based; conditions: for Emax: read-out: Efficacy[%] ERβ
T2 construct: pSG5-ERα/β FL (Heg0/ERβ0); expressed in transfected cells; host or cells: U-20S (U-2 OS) cells, transient transfection with FuGENE 6
Method: as §1, §2, §3, §4, §5, §6, §7, §8, §9, §10, §11, §12, §13, §14

[4] = Distribution coefficient log D (HPLC method)
[5] = physchem; conditions: pH 7
[6] = pH 7.4
[7] = tested on: estrogen receptor preparations from rat prostates; experiment: Estrogen receptor binding, rat prostate cytosol, 3H-estradiol competition; conditions: competition with 3H-estradiol, rat prostate cytosol
From the text: (§15) In this case, it is assumed that ERβ predominates in the rat prostates over ERα, and ERα predominates in rat uteri over ERβ.

[8] = tested on: estrogen receptor preparations from rat uteri; experiment: Estrogen receptor binding, rat uterus cytosol, 3H-estradiol competition; conditions: competition with 3H-estradiol
From the text: as §15

[9] = U-20S cells, potency relative to reference fulvestrant = 100
[10] = U-20S cells, luciferase activity

T2 sequence (Q92731 whole entry, species assumed): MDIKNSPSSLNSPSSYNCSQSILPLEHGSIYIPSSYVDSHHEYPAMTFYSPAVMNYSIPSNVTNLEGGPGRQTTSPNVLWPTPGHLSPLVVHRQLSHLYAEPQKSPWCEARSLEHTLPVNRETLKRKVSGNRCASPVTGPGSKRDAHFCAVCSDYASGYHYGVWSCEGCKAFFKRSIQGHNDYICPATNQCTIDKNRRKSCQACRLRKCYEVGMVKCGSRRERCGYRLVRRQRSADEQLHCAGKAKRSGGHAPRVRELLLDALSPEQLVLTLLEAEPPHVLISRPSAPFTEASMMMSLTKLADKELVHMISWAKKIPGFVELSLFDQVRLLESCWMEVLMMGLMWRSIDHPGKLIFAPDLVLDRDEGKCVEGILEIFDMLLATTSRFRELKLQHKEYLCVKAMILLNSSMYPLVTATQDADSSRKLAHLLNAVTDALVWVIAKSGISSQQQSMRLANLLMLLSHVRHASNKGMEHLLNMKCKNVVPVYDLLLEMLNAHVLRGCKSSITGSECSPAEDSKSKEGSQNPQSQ

With C=C[C@@]12CCc3cc(O)ccc3C1[C@@H](CCCCC[C@H](O)C(F)(F)C(F)(F)C(F)(F)F)C[C@@]1(C)C2CC[C@@H]1O (mixture of isomers) [22b D1/2, 11β-[(R/S)-9,9,9,8,8,7,7-Heptafluoro-6-hydroxynonyl]-8-vinyl-estra-1,3,5(10)-triene-3,17β-diol] the Sw [1] was 7 mg/I, the “Efficacy[%] ERα” value ([2]; U-20S cells) was 90% and the “EMR (EC50 )[%] ERα” value [2, 9] was 1.6%. For the same compound, the “EMR (EC50 )[%] ERβ” value ([3]; U-20S cells, potency relative to reference = 100) was 29%, the Emax [3] was 100% and the chromatographic logD ([4]; pH 7) was 5.1.

With C=C[C@@]12CCc3cc(O)ccc3[C@H]1[C@@H](CCCCCN1CCCC1)C[C@@]1(C)[C@H]2CC[C@@H]1O [Compound 26a, 11β-[5-(Pyrrolidin-1-yl)pentyl]-8-vinylestra-1,3,5(10)-triene-3,17β-diol] the chromatographic logD [5] was 4, the “EMR (EC50 )[%] ERα” value [2] was 7.9% and the “Efficacy[%] ERα” value ([2]; U-20S cells) was 85%. For the same compound, the Sw [6] was greater than 40 mg/I, the Emax [3, 10] was 100% and the “EMR (EC50 )[%] ERβ” value [3, 9] was 56%.

For C[C@]12CC[C@@H]3c4ccc(O)cc4C[C@@H](CCCCCCCCC[S+]([O-])CCCC(F)(F)C(F)(F)F)[C@H]3[C@@H]1CC[C@@H]2O (stereo partly shown) [Ref.^1, fulvestrant, reference compound], the Sw [1] was less than 1 mg/I and the “Log D” value ([4]; HPLC method, pH: 7.0, 25° C.) was 5.31.

With C=C[C@@]12CCc3cc(O)ccc3[C@H]1[C@@H](CCCCCCN1CCCC1)C[C@@]1(C)[C@H]2CC[C@@H]1O [Compound 26b, 11β-[6-(Pyrrolidin-1-yl)hexyl]-8-vinylestra-1,3,5(10)-triene-3,17β-diol] the chromatographic logD [5] was 4.2, the “EMR (EC50 )[%] ERα” value [2] was 12% and the “Efficacy[%] ERα” value ([2]; U-20S cells) was 66%. For the same compound, the Sw [6] was 37 mg/I, the Emax [3, 10] was 93% and the “EMR (EC50 )[%] ERβ” value [3, 9] was 52%.

In the case of C=C[C@@]12CCc3cc(O)ccc3C1[C@@H](CCCC[C@@H](O)C(F)(F)F)C[C@@]1(C)C2CC[C@@H]1O (mixture of isomers) [15a D1/2, 11β-[(R/S)-6,6,6-Trifluoro-5-hydroxyhexyl]-8-vinyl-estra-1,3,5(10)-triene-3,17β-diol], the “EMR (EC50 )[%] ERα” value [2] is reported as 0.8%, the “Efficacy[%] ERα” value ([2]; U-20S cells) is reported as 79% and the Emax [3, 10] is reported as 100%. The “EMR (EC50 )[%] ERβ” value [3, 9] was 42%.

With C=C[C@@]12CCc3cc(O)ccc3C1[C@@H](CCCCCC)C[C@@]1(C)C2CC[C@@H]1O (stereo partly shown) [reference compound] the chromatographic logD [5] was 5.7, the “EMR (EC50 )[%] ERα” value [2] was 0.5% and the “Efficacy[%] ERα” value ([2]; U-20S cells) was 63%. The Sw [6] was less than 1 mg/I, the Emax [3, 10] was 93% and the “EMR (EC50 )[%] ERβ” value [3, 9] was 18%.

With CC12CCC3c4ccc(O)cc4CCC3C1CCC2O (stereo not shown) the “Rat Prostate ER (RBA)” value [7] was 100 and the “Rat Uterus ER (RBA)” value [8] was 100.

For CCCCCC[C@H]1C[C@@]2(C)C(CC[C@@H]2O)[C@]2(C)CCc3cc(O)ccc3C12 (stereo partly shown) [reference compound], the “EMR (EC50 )[%] ERα” value [2] was 0.3%, the “Efficacy[%] ERα” value ([2]; U-20S cells) was 80% and the Emax [3, 10] was 98%. The “EMR (EC50 )[%] ERβ” value [3, 9] was 3.1%.

For C=C[C@@]12CCc3cc(O)ccc3[C@H]1[C@@H](CCCCCCN(C)C)C[C@@]1(C)[C@H]2CC[C@@H]1O [Compound 25b, 11β-[6-(Dimethylamino)hexyl]-8-vinylestra-1,3,5(10)-triene-3,17β-diol], the chromatographic logD [5] was 4.2, the “EMR (EC50 )[%] ERα” value [2] was 17% and the “Efficacy[%] ERα” value ([2]; U-20S cells) was 88%. For the same compound, the Sw [6] was greater than 40 mg/I, the Emax [3, 10] was 99% and the “EMR (EC50 )[%] ERβ” value [3, 9] was 137%.

With C=C[C@@]12CCc3cc(O)ccc3[C@H]1[C@@H](CCCCCC#N)C[C@@]1(C)[C@H]2CC[C@@H]1O [Compound 36, 6-[3,17β-Dihydroxy-8-vinylestra-1,3,5(10)-trien-11β-yl]capronitrile] the “EMR (EC50 )[%] ERα” value [2] was 1.6%, the “Efficacy[%] ERα” value ([2]; U-20S cells) was 67% and the Emax [3, 10] was 100%. For the same compound, the “EMR (EC50 )[%] ERβ” value [3, 9] was 33%.
